Assay results published in patent US20090304692A1, “TRIAZINE COMPOUNDS AS PI3 KINASE AND MTOR INHIBITORS” (Wyeth, priority 2008, published 2009).
Several values for one entry are separate records, joined by “and”; a condition that tells them apart may be missing. Equal entries are not always repeated. Where two headings read alike, the source gives them in different places.

What was measured:
[1] = target: human SMG-1 (hSMG-1) (Homo sapiens, UniProt Q96Q15); assay: hSMG-1 kinase assay (DELFIA); assay type: biochemical
[2] = target: Human mTOR (FLAG-TOR) (Homo sapiens, UniProt P42345); assay: mTOR kinase assay (DELFIA format, purified enzyme); assay type: biochemical; details: read-out: IC50 mTOR
[3] = test system: human prostate LNCap tumor cell line; assay: In vitro cell culture growth assay (MTS), LNCap; details: Homo sapiens, LNCaP, 72 h, read-out: IC50 LNCap
[4] = target: PI3K-α (Homo sapiens, UniProt P42336); assay: PI3K-alpha fluorescence polarization assay; details: read-out: IC50 PI3Kα
[5] = target: PI3K-γ (Homo sapiens, UniProt P48736); assay: PI3K-gamma fluorescence polarization assay
[6] = test system: human prostate PC3-mm2 tumor cell line; assay: In vitro cell culture growth assay (MTS), PC3-mm2; assay type: cell-based; details: Homo sapiens, PC3MM2, 72 h, MTS cell growth assay, three days after drug treatment, read-out: IC50 PC3-mm2
[7] = test system: human breast MDA-MB-361 tumor cell line; assay: In vitro cell culture growth assay (MTS), MDA-MB-361; assay type: cell-based; details: Homo sapiens, MDA-MB-361, 72 h; MTS cell growth assay, three days after drug treatment; read-out: IC50 MDA-MB-361

Chain of PI3K-γ (P48736 whole entry, species assumed): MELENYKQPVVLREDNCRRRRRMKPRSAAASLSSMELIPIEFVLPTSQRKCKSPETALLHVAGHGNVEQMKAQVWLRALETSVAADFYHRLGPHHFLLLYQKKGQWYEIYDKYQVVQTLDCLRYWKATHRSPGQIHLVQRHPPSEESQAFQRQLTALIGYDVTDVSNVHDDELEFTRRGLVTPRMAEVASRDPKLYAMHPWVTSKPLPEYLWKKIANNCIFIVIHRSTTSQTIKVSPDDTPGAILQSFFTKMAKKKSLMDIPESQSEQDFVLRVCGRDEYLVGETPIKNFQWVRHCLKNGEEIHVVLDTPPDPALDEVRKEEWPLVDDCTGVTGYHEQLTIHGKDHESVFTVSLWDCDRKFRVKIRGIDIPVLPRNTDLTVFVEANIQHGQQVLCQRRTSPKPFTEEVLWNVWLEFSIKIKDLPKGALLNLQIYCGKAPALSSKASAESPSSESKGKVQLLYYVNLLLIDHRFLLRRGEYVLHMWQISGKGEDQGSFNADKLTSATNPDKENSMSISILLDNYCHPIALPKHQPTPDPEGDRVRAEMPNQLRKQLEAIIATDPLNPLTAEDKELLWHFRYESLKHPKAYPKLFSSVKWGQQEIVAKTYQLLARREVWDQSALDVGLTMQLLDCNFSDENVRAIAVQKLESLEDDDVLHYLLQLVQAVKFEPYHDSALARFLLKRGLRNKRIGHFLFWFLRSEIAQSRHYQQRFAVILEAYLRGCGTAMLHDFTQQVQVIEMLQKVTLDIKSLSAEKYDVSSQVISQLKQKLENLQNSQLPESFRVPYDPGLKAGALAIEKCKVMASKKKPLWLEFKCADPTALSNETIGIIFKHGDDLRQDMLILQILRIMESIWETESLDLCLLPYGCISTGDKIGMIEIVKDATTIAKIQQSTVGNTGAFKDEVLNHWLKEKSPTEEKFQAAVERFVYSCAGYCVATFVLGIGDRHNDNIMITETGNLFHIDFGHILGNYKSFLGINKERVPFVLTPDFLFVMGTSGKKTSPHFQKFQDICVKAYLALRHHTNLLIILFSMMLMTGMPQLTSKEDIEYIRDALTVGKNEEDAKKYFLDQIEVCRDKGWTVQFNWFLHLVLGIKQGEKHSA
Chain of human SMG-1 (hSMG-1) (Q96Q15 whole entry): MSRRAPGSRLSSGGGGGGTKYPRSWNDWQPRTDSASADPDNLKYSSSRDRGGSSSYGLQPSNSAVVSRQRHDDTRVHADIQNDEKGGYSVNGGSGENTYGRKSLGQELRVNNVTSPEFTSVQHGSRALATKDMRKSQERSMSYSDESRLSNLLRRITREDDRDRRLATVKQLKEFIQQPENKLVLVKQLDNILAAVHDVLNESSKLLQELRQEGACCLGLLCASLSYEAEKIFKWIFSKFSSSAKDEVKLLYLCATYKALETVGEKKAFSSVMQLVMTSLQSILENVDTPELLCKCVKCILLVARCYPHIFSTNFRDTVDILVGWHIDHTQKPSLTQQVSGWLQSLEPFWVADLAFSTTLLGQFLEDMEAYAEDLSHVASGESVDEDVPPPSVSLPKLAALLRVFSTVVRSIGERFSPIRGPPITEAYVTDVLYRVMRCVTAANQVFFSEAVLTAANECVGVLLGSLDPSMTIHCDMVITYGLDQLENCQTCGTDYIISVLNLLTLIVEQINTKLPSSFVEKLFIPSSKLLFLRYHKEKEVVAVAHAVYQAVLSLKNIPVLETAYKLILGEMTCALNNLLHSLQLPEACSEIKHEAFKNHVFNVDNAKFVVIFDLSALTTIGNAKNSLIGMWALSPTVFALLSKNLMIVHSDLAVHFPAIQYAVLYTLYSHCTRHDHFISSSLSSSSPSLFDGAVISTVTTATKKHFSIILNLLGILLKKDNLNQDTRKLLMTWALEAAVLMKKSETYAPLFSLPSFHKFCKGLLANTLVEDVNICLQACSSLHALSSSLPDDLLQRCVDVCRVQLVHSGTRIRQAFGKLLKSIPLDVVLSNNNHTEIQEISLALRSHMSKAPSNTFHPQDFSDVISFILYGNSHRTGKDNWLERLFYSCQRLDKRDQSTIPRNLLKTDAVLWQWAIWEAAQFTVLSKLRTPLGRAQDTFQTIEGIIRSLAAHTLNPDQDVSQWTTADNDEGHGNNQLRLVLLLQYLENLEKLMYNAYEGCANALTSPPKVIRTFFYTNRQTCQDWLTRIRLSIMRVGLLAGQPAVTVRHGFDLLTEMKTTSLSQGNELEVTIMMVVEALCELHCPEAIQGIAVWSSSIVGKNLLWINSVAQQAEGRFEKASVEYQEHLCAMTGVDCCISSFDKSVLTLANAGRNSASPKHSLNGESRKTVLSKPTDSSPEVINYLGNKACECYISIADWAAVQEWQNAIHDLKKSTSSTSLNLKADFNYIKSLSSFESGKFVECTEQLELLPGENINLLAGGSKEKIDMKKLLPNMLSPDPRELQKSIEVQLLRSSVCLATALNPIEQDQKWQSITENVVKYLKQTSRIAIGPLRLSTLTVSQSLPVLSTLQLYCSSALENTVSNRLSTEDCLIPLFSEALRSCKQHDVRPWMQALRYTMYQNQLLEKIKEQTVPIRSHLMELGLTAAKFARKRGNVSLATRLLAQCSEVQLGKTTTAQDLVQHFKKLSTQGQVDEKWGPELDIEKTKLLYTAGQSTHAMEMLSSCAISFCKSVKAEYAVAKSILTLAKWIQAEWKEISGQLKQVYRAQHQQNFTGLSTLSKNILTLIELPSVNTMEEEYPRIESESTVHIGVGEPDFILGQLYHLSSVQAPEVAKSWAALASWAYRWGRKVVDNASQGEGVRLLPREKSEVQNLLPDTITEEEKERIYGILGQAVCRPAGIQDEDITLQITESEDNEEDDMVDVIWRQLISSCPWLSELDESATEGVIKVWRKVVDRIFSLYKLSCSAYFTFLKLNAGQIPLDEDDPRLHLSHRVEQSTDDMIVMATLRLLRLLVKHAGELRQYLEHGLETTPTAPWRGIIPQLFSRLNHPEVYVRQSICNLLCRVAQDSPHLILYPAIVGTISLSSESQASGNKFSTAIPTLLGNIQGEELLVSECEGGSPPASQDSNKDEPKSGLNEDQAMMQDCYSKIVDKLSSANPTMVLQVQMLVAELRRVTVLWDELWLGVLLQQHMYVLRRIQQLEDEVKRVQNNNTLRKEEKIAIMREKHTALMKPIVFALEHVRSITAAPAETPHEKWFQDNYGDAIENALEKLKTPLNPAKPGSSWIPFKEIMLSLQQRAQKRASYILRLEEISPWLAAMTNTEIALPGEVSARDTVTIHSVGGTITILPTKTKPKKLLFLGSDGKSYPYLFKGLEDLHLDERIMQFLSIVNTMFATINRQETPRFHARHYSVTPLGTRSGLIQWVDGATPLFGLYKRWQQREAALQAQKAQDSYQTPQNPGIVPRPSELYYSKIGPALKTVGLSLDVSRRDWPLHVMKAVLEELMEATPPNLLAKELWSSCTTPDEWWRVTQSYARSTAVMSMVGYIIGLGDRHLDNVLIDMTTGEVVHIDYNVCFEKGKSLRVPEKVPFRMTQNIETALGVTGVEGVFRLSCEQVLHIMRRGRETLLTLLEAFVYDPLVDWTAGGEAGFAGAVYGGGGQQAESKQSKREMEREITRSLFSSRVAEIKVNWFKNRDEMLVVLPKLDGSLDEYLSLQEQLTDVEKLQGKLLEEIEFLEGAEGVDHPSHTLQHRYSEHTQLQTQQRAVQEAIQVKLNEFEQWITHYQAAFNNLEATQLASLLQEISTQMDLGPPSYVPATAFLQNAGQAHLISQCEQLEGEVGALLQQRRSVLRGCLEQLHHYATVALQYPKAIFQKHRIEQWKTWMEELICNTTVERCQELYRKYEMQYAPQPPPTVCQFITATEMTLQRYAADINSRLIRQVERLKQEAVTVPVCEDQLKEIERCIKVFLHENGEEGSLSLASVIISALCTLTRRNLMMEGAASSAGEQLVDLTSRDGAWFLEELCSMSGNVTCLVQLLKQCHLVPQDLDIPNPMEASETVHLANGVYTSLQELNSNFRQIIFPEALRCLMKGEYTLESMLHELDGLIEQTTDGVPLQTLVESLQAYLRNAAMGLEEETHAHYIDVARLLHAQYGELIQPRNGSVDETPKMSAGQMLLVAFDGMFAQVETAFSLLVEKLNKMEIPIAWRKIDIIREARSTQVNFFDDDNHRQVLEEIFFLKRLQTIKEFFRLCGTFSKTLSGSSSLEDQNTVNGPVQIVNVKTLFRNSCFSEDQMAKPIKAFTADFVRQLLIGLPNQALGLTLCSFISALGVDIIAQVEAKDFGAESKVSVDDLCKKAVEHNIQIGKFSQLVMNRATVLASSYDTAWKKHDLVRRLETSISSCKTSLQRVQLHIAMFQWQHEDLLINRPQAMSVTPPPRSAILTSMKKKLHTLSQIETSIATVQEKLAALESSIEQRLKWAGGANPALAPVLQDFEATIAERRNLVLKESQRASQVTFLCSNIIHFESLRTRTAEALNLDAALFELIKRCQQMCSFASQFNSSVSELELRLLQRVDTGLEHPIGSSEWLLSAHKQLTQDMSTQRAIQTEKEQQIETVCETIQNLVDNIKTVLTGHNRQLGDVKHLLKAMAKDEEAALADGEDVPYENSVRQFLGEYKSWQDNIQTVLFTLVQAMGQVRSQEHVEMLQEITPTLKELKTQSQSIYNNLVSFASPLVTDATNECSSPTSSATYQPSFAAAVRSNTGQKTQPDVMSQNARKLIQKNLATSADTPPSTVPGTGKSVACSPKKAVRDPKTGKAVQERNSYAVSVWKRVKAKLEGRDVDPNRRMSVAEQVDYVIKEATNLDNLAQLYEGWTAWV

Row | SMILES | IC50 [1] | IC50 [2] | IC50 [3] | IC50 [4] | IC50 ([5]; read-out: IC50 PI3Kγ) | other results
1 | c1cc(-c2nc(N3CCOCC3)nc(N3CCOCC3)n2)ccc1-c1nn[nH]n1 [Example 475, 2,4-dimorpholin-4-yl-6-[4-(2H-tetrazol-5-yl)phenyl]-1,3,5-triazine] | > 20000 nM | 18500 nM |  |  |  | 
2 | O=C(Nc1ccncc1)Nc1ccc(-c2nc(N3CCOCC3)nc(N3C(CO)CCC3CO)n2)cc1 (centres unmarked) [Example 268, 1-(4-{4-[2,5-bis(hydroxymethyl)pyrrolidin-1-yl]-6-morpholin-4-yl-1,3,5-triazin-2-yl}phenyl)-3-pyridin-4-ylurea] |  | 0.39 nM and 0.38 nM | 38 nM | 12 nM | 41 nM | IC50 ([4]; listed as 728): 10.5 nM; IC50 ([5]; read-out: IC50 PI3Kγ, listed as 728): 47 nM; IC50 ([6]; PC3-mm2 cells): 107 nM; IC50 [6]: 107 nM; IC50 [7]: 59 nM
3 | CNC(=O)Nc1ccc(-c2nc(-c3ccc(NC(=O)Nc4ccc(C(N)=O)cc4)cc3)nc(N3CC4CCC(C3)O4)n2)cc1 [Example 464, 4-[({4-[4-{4-[(methylcarbamoyl)amino]phenyl}-6-(8-oxa-3-azabicyclo[3.2.1]oct-3-yl)-1,3,5-triazin-2-yl]phenyl}carbamoyl)amino]benzamide] | 3 nM | 1 nM |  |  |  | 
4 | CNC(=O)Nc1ccc(-c2nc(-c3ccc(NC(=O)Nc4ccncc4)cc3)nc(N3CC4CCC(C3)O4)n2)cc1 [Example 471, 1-methyl-3-{4-[4-(8-oxa-3-azabicyclo[3.2.1]oct-3-yl)-6-{4-[(pyridin-4-ylcarbamoyl)amino]phenyl}-1,3,5-triazin-2-yl]phenyl}urea] | 5 nM |  | 130 nM |  |  | 
5 | CNC(=O)Nc1ccc(-c2nc(N3CCOCC3)nc(N3CCOCC3)n2)cc1 [Example 476, 1-[4-(4,6-dimorpholin-4-yl-1,3,5-triazin-2-yl)phenyl]-3-methylurea] | 19 nM | 5 nM |  |  |  | 
6 | O=C(Nc1ccc(-c2nc(N3CCOCC3)nc(N3CCOCC3)n2)cc1)C(F)F [Example 473, N-[4-(4,6-dimorpholin-4-yl-1,3,5-triazin-2-yl)phenyl]-2,2-difluoroacetamide] | 3650 nM | 35 nM |  |  |  | 
7 | CNC(=O)Nc1ccc(-c2nc(-c3ccc(NC(=O)Nc4cccnc4)cc3)nc(N3C(C)COCC3C)n2)cc1 (centres unmarked) [Example 463, 1-{4-[4-(3,5-dimethylmorpholin-4-yl)-6-{4-[(methylcarbamoyl)amino]phenyl}-1,3,5-triazin-2-yl]phenyl}-3-pyridin-3-ylurea] | 510 nM | 17 nM |  |  |  | 
8 | CNC(=O)Nc1ccc(-c2nc(-c3ccc(NC(=O)Nc4cccc(C(N)=O)c4)cc3)nc(N3CC4CCC(C3)O4)n2)cc1 [Example 465, 3-[({4-[4-{4-[(methylcarbamoyl)amino]phenyl}-6-(8-oxa-3-azabicyclo[3.2.1]oct-3-yl)-1,3,5-triazin-2-yl]phenyl}carbamoyl)amino]benzamide] | 5 nM | 1 nM |  |  |  | 
9 | c1cc(-c2nc(N3CCOCC3)nc(N3CCOCC3)n2)ccc1NC1=NCCN1 [Example 474, N-[4-(4,6-dimorpholin-4-yl-1,3,5-triazin-2-yl)phenyl]-4,5-dihydro-1H-imidazol-2-amine] | 5650 nM | 48 nM |  |  |  | 
10 | O=C(Nc1ccncc1)Nc1ccc(-c2nc(C3CCOCC3)nc(N3CCOCC3)n2)cc1 [Example 101, 1-{4-[4-Morpholin-4-yl-6-(tetrahydro-pyran-4-yl)-[1,3,5]triazin-2-yl]-phenyl}-3-pyridin-4-yl-urea] |  | 0.44 nM | 3 nM | 6 nM | 33 nM | IC50 [6]: 37.3 nM; IC50 [7]: 32.7 nM
11 | O=C(Cc1ccc(-c2nc(N3CCOCC3)nc(N3CCOCC3)n2)cc1)Nc1cccnc1 [Example 477, 2-[4-(4,6-dimorpholin-4-yl-1,3,5-triazin-2-yl)phenyl]-N-pyridin-3-ylacetamide] | 9250 nM | 14000 nM |  |  |  | 
12 | CC(C)Nc1nc(-c2ccc(NC(=O)Nc3ccc(CN4CCNCC4)cc3)cc2)nc(N2C3CCC2COC3)n1 [Example 380, 1-(4-(4-(3-oxa-8-azabicyclo[3.2.1]octan-8-yl)-6-(isopropylamino)-1,3,5-triazin-2-yl)phenyl)-3-(4-(piperazin-1-ylmethyl)phenyl)urea] |  | 5.1 nM | 300 nM | 3340 nM | 3560 nM | 
13 | O=C(Nc1ccncc1)Nc1ccc(-c2nc(N3C4CCC3COC4)nc(N3C4CCC3COC4)n2)cc1 [Example 224, 1-[4-(4,6-di-3-oxa-8-azabicyclo[3.2.1]oct-8-yl-1,3,5-triazin-2-yl)phenyl]-3-pyridin-4-ylurea] |  | 0.4 nM and 0.395 nM | < 0.8 nM | 444 nM | 5870 nM | IC50 ([5]; read-out: IC50 PI3Kγ, listed as 717): 5870 nM
14 | O=C(Nc1ccc(-c2nc(N3CC4CCC(C3)O4)nc(N3CC4CCC(C3)O4)n2)cc1)OCCO [Example 27, 2-hydroxyethyl[4-(4,6-di-8-oxa-3-azabicyclo[3.2.1]oct-3-yl-1,3,5-triazin-2-yl)phenyl]carbamate] |  | 4.15 nM | 350 nM | 1230 nM |  | IC50 [5]: > 10000 nM
15 | CC(C)Nc1nc(-c2ccc(NC(=O)Nc3ccc(OCCN(C)C)cc3)cc2)nc(N2CC3CCC(C2)O3)n1 [Example 220, 1-{4-[2-(dimethylamino)ethoxy]phenyl}-3-(4-{4-[(1-methylethyl)amino]-6-(8-oxa-3-azabicyclo[3.2.1]oct-3-yl)-1,3,5-triazin-2-yl}phenyl)urea] |  | 3.5 nM | 40 nM | 275 nM | 2830 nM | 
16 | CCNC(=O)Nc1ccc(-c2nc(N3CC4CCC(C3)O4)nc(N3CC4CCC(C3)O4)n2)cc1 [Example 29, 1-[4-(4,6-di-8-oxa-3-azabicyclo[3.2.1]oct-3-yl-1,3,5-triazin-2-yl)phenyl]-3-ethylurea] |  | 2.8 nM | 180 nM | 2690 nM |  | IC50 [5]: > 10000 nM
17 | CN(C)CC(=O)Nc1ccc(NC(=O)Nc2ccc(-c3nc(N4CC5CCC(C4)O5)nc(N4CC5CCC(C4)O5)n3)cc2)cc1 [Example 352, N-[4-({[4-(4,6-di-8-oxa-3-azabicyclo[3.2.1]oct-3-yl-1,3,5-triazin-2-yl)phenyl]carbamoyl}amino)phenyl]-N2,N2-dimethylglycinnamide] |  | 0.24 nM | < 0.8 nM | 13.5 nM | 732 nM | 
18 | CC(C)Nc1nc(-c2ccc(NC(=O)Nc3cccnc3)cc2)nc(N2C3CCC2COC3)n1 [Example 376, 1-(4-(4-(3-oxa-8-azabicyclo[3.2.1]octan-8-yl)-6-(isopropylamino)-1,3,5-triazin-2-yl)phenyl)-3-(pyridin-3-yl)urea] |  | 2.3 nM | 50 nM | 2600 nM |  | IC50 [5]: > 10000 nM
19 | C[C@@H]1COCCN1c1nc(-c2ccc(NC(=O)Nc3ccc(N4CCC(N(C)C)CC4)cc3)cc2)nc(C2CCOCC2)n1 [Example 430, (R)-1-(4-(4-(dimethylamino)piperidin-1-yl)phenyl)-3-(4-(4-(3-methylmorpholino)-6-(tetrahydro-2H-pyran-4-yl)-1,3,5-triazin-2-yl)phenyl)urea] |  | 1.7 nM | 16 nM | 402 nM | 484 nM | 
20 | O=C(Nc1ccc(-c2nc(NN3CCN(C4CCCC4)CC3)nc(N3CC4CCC(C3)O4)n2)cc1)Nc1cccnc1 [Example 157, 1-(4-{4-[(4-cyclopentylpiperazin-1-yl)amino]-6-(8-oxa-3-azabicyclo[3.2.1]oct-3-yl)-1,3,5-triazin-2-yl}phenyl)-3-pyridin-3-ylurea] |  | 170 nM | 2700 nM | 1450 nM | 7090 nM | 
21 | CC(C)c1nc(-c2ccc(NC(=O)Nc3ccc(-c4ccncc4)cc3)cc2)nc(N2CCOCC2)n1 [Example 489, 1-{4-[4-(1-methylethyl)-6-morpholin-4-yl-1,3,5-triazin-2-yl]phenyl}-3-(4-pyridin-4-ylphenyl)urea] |  | 2.2 nM | 4300 nM | 3670 nM | 9040 nM | 
22 | CN(C)CC(=O)Nc1ccc(NC(=O)Nc2ccc(-c3nc(N4C5CCC4COC5)nc(N4C5CCC4COC5)n3)cc2)cc1 [Example 373, N-(4-(3-(4-(4,6-di(3-oxa-8-azabicyclo[3.2.1]octan-8-yl)-1,3,5-triazin-2-yl)phenyl)ureido)phenyl)-2-(dimethylamino)acetamide] |  | 0.16 nM | 1 nM | 70 nM | 2960 nM | 
23 | O=C(Nc1ccc(-c2nc(N3CC4CCC(C3)O4)nc(N3CC4CCC(C3)O4)n2)cc1)NC1CC1 [Example 30, 1-cyclopropyl-3-[4-(4,6-di-8-oxa-3-azabicyclo[3.2.1]oct-3-yl-1,3,5-triazin-2-yl)phenyl]urea] |  | 2.65 nM | 90 nM | 2120 nM |  | IC50 [5]: > 10000 nM
24 | CN1CCN(c2ccc(NC(=O)Nc3ccc(-c4nc(-c5ccc(NC(=O)Nc6ccncc6)cc5)nc(N5CC6CCC(C5)O6)n4)cc3)cc2)CC1 [Example 148, 1-[4-(4-methylpiperazin-1-yl)phenyl]-3-{4-[4-(8-oxa-3-azabicyclo[3.2.1]oct-3-yl)-6-{4-[(pyridin-4-ylcarbamoyl)amino]phenyl}-1,3,5-triazin-2-yl]phenyl}urea] |  | 8 nM | 680 nM | 300 nM | 620 nM | 
